The source made the active and inactive calls. No cut-off for these calls is given here.
Key:
MCF7 [1] = test: Induction of apoptosis in human MCF7 cells assessed as total apoptotic cells at 0.5 uM incubated for 48 hrs by annexin V-FITC staining based flow cytometry; type: functional
LCC2 [2] = test: Induction of mitochondrial membrane potential loss in tamoxifen-resistant human LCC2 cells at 5 to 30 uM incubated for 48 hrs by JC-1 staining based flow cytometry; type: functional, cell-based; conditions: dose 5-30 µM
[3] = Cmax in BALB/C mouse at 5 mg/kg, iv by LC-MS/MS analysis; type: ADME, organism-based; set-up: dose 5 mg/kg, route iv; conditions: in vivo
[4] = Tmax in BALB/C mouse at 5 mg/kg, iv by LC-MS/MS analysis; type: ADME, organism-based; conditions: in vivo
LCC2 [5] = test: Induction of apoptosis in tamoxifen-resistant human LCC2 cells assessed as decrease in Bcl2 level at 5 to 30 uM incubated for 48 hrs by western blot analysis; type: functional, cell-based; conditions: dose 5-30 µM
LCC2 [6] = test: Downregulation of hexokinase-1 expression in tamoxifen-resistant human LCC2 cell mitochondria at 20 uM measured after 24 hrs by DAPI staining based immunofluorescence microscopy; type: functional
[7] = Antiproliferative activity against human MCF-10A cells assessed as reduction in cell viability measured after 72 hrs by Cell Counting Kit-8 assay; type: toxicity, cell-based
[8] = Tmax in BALB/C mouse at 20 mg/kg, po by LC-MS/MS analysis; type: ADME, organism-based; conditions: in vivo
[9] = Toxicity in BALB/C mouse xenografted with human MCF7 cells assessed as change in body weight at 10 to 20 mg/kg, po measured every 2 days for 34 days; type: organism-based; conditions: in vivo, 816 h, dose 10-20 mg/kg, time 34 day
[10] = Cmax in BALB/C mouse at 20 mg/kg, po by LC-MS/MS analysis; type: ADME, organism-based; set-up: dose 20 mg/kg, route po; conditions: in vivo
MCF7 [11] = test: Induction of apoptosis in human MCF7 cells assessed as increase in late apoptotic cells at 0.5 to 4 uM incubated for 48 hrs by annexin V-FITC staining based flow cytometry; type: functional, cell-based; conditions: dose 0.5-4 µM
MCF7 [12] = test: Induction of apoptosis in human MCF7 cells assessed as increase in Bax level at 0.5 to 4 uM incubated for 48 hrs by western blot analysis; type: functional, cell-based; conditions: dose 0.5-4 µM
MCF7 [13] = test: Antitumor activity against human MCF7 cells xenografted in BALB/C mouse assessed as reduction of tumor volume at 20 mg/kg, po measured every 2 days for 34 days; type: functional, organism-based; conditions: time 34.0 day
[14] = Volume of distribution at steady state in BALB/C mouse at 5 mg/kg, iv by LC-MS/MS analysis; type: ADME, organism-based; conditions: in vivo, read-out: Vdss
MCF7 [15] = test: Antitumor activity against human MCF7 cells xenografted in BALB/C mouse assessed as decrease in cell proliferation at 20 mg/kg, po by Ki67 staining based immunohistochemical analysis; type: functional, organism-based
LCC2 [16] = test: Induction of apoptosis in tamoxifen-resistant human LCC2 cells assessed as increase in late apoptotic cells at 5 to 30 uM incubated for 48 hrs by annexin V-FITC staining based flow cytometry; type: functional, cell-based; conditions: dose 5-30 µM
[17] = Toxicity in BALB/C mouse xenografted with tamoxifen-resistant human LCC2 cells assessed as mortality at 20 mg/kg, po measured after 22 days; type: organism-based; conditions: in vivo, 528 h, time 22 day
MCF7 [18] = test: Downregulation of hexokinase-1 expression in human MCF7 cell mitochondria at 16 uM measured after 24 hrs by DAPI staining based immunofluorescence microscopy; type: functional
[19] = Oral bioavailability in BALB/C mouse at 20 mg/kg by LC-MS/MS analysis; type: ADME, organism-based; conditions: in vivo
[20] = Toxicity in BALB/C mouse xenografted with human MCF7 cells assessed as morphological changes in heart at 10 to 20 mg/kg, po by hematoxylin and eosin staining based analysis; type: organism-based; conditions: in vivo, dose 10-20 mg/kg
[21] = Clearance in BALB/C mouse at 5 mg/kg, iv by LC-MS/MS analysis; type: ADME, organism-based; conditions: in vivo
[22] = Toxicity in BALB/C mouse xenografted with human MCF7 cells assessed as morphological changes in kidney at 10 to 20 mg/kg, po by hematoxylin and eosin staining based analysis; type: organism-based; conditions: in vivo, dose 10-20 mg/kg
MCF7 [23] = test: Induction of apoptosis in human MCF7 cells assessed as total apoptotic cells at 1 uM incubated for 48 hrs by annexin V-FITC staining based flow cytometry; type: functional
MCF7 [24] = test: Induction of ROS production in human MCF7 cells at 1 to 4 uM measured after 48 hrs by DCFH-DA staining based confocal laser scanning microscopic method; type: functional, cell-based; conditions: dose 1-4 µM
[25] = Half life in BALB/C mouse at 5 mg/kg, iv by LC-MS/MS analysis; type: ADME, organism-based; conditions: in vivo
[26] = Antitumor activity against tamoxifen-resistant human LCC2 cells xenografted in BALB/C mouse assessed as tumor growth inhibition at 20 mg/kg, po measured every 2 days for 22 days; type: functional; conditions: LCC2, 528 h, time 22 day, read-out: TGI
LCC2 [27] = test: Induction of apoptosis in tamoxifen-resistant human LCC2 cells at 5 to 30 uM incubated for 48 hrs by annexin V-FITC staining based flow cytometry; type: functional, cell-based; conditions: dose 5-30 µM
[28] = molecular target: T1, Hexokinase-1 (Homo sapiens) (UniProt P19367); test: Inhibition of human recombinant hexokinase-1 assessed as NADPH generation measured after 1 hr by HPLC analysis; conditions: DDE = dose-dependent effect
T1 sequence (whole entry): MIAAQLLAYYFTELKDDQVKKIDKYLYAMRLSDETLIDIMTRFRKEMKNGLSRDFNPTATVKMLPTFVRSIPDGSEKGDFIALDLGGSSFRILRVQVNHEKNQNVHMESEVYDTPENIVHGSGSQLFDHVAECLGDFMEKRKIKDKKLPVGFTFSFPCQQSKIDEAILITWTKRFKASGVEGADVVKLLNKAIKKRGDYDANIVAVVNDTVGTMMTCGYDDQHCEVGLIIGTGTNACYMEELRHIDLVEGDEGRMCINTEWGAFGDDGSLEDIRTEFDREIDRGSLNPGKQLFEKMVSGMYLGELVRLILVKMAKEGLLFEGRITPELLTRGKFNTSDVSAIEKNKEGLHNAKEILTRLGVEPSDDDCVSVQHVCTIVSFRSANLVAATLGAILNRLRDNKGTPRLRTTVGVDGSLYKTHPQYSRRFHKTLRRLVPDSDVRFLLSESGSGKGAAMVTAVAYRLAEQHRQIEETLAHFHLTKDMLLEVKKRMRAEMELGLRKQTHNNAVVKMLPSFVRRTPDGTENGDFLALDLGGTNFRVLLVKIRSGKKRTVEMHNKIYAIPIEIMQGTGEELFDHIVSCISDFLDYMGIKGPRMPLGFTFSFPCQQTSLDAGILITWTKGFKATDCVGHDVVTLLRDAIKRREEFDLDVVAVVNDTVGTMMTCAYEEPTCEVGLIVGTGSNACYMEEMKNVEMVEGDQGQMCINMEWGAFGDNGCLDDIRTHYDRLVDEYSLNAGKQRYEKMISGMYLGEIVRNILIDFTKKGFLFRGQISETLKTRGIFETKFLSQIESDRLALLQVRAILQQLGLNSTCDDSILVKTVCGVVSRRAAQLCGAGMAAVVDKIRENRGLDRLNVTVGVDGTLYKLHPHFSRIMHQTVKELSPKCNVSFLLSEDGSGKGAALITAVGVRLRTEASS

With O=S(=O)(Oc1cccc2ccccc12)C1CC2OC1C(c1ccc([Se]c3ccccc3)cc1)=C2c1ccc(O)cc1 (stereo not drawn) the Activity (MCF7 [1]) was 9.16%, the Activity (LCC2 [2]) was “Active” and the Cmax [3] was 1490 ng/mL. For the same molecule, the Tmax [4] was 4.98 min, the Activity (LCC2 [5]) was “Active” and the Activity (LCC2 [6]) was “Active”. The IC50 at 72 h [7] was over 60 µM, the Tmax [8] was 2 h and the Activity [9] was “Non-Toxic”. For the same molecule, the Cmax [10] was 400 ng/mL, the Activity (MCF7 [11]) was “Active” and the Activity (MCF7 [12]) was “Active”. The Activity (MCF7 [13]) was “Active”, the Vd [14] was 21.6 L/kg and the Activity (MCF7 [15]) was “Active”. For the same molecule, the Activity (LCC2 [16]) was “Active”, the Activity [17] was “Non-Toxic” and the Activity (MCF7 [18]) was “Active”. For the same molecule, the bioavailability [19] was 23.2%, the Activity [20] was “Non-Toxic” and the clearance [21] was 52.7 mL/min/kg. The Activity [22] was “Non-Toxic”, the Activity (MCF7 [23]) was 15.15% and the Activity (MCF7 [24]) was “Active”. For the same molecule, the half-life [25] was 4.65 h, the inhibition in vivo at 20 mg/kg [26] was 57.3% and the Activity (LCC2 [27]) was “Active”. For the same molecule, the Activity [28] was “Dde”.
